Biological target: T1, AlaRS R329H binding to Nrp1 (Homo sapiens, UniProt P49588, R329H)
T1 construct: expressed in transfected cells
T1 sequence (P49588 1-968 R329H): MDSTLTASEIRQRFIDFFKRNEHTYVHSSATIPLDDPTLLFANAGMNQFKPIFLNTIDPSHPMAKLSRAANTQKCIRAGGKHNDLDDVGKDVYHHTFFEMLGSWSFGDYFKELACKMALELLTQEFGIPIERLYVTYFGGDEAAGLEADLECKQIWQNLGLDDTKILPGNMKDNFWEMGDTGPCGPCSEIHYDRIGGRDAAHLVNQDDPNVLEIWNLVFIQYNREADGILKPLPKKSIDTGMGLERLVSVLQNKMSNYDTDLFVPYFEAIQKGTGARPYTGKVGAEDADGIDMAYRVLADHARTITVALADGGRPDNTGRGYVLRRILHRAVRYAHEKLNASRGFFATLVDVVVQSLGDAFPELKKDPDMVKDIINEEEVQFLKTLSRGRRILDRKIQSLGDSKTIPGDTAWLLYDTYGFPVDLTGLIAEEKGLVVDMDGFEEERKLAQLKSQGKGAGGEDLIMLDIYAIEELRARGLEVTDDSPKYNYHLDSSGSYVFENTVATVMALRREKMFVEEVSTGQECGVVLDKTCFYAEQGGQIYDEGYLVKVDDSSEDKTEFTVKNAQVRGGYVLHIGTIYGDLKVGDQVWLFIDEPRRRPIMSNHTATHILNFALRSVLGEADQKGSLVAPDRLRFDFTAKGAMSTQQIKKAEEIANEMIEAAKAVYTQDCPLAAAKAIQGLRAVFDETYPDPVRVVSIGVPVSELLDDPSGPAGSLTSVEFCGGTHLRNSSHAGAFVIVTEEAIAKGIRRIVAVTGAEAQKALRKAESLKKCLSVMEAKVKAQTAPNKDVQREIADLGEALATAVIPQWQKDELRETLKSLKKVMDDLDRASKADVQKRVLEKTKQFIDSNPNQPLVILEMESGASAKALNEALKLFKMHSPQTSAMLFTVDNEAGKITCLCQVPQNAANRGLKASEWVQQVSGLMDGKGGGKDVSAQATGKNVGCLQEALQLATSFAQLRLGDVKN
Assay: Co-IP of HA-AlaRS mutant with Nrp1 in transfected cells
Format: cell-based
Conditions: 20 µM Tanshinone I for 24 h, ImageJ, average of three repeats
Experimental: To further investigate whether Tanshinone I-induced conformational changes in AlaRS CMT mutants affect their interaction with Nrp1, Co-IP experiments were performed in cells treated with Tanshinone I. By comparing Co-IP results obtained before and after treatment, we assessed the influence of the drug on the binding strength and mode between the AlaRS CMT mutants and Nrp1. […] To confirm the direct effect of Tanshinone I on the interaction between AlaRS CMT mutants and Nrp1, pull-down experiments were performed. […] Given that the interaction between AlaRS mutants and Nrp1 is associated with disease progression in CMT, the ability of Tanshinone I to disrupt this binding highlights its potential to intervene in the pathogenic mechanisms of these diseases.
Figure 7 The impact of Tanshinone I on the interaction between AlaRS mutants and Nrp1. (A) Co-IP assays were conducted to assess the binding between HA-AlaRS mutants and Nrp1, both with and without treatment with 20 µM Tanshinone I for 24 h. […] (C) Pull down assay was performed to detect the binding between AlaRS mutants and GST-Nrp1 b1 with or without 20 µM Tanshinone I. (D) Relative quantification statistics of the AlaRS mutants pulled down from the GST pull down experiments after Tanshinone I treatment were performed using ImageJ. (E) The cell viability of 293T and NSC34 cells treated with different concentrations of Tanshinone I was assessed using the CCK-8 assay over a 24 h period. TEXT PRINTED IN THE PICTURE: (B) Tanshinone I: Mean density band (N71Y): 0.60; Mean density band (G102R): 0.53; Mean density band (R326W): 0.50; Mean density band (R329H): 0.50; Mean density band (E337K): 0.62 | (D) Tanshinone I: Mean density band (N71Y): 0.82; Mean density band (G102R): 0.76; Mean density band (R326W): 0.84; Mean density band (R329H): 0.84; Mean density band (E337K): 0.90
Total protein was extracted from cells using RIPA buffer (50 mM Tris-HCl pH 7.4, 150 mM NaCl, 1% NP40, 1 mM EDTA) supplemented with a protease and phosphatase inhibitor cocktail (Roche, Basel, Switzerland). After SDS-PAGE, the protein on the gel was transferred to a PVDF membrane (Bio-Rad, Hercules, CA, USA) and then blocked with 5% non-fat dry milk in TBST for 1 h. Then, the membranes were incubated with the indicated primary antibodies and corresponding HRP-conjugated secondary antibodies. Signals were detected using the Bio-Rad ChemiDoc system (Bio-Rad, Shanghai, China). The following antibodies were used: Flag (Ray antibody biotech, Beijing, China, 1:3000), HA (Ray antibody biotech, Beijing, China, 1:3000), and GAPDH (Ray antibody biotech, Beijing, China, 1:5000).
To detect the binding of Nrp1 and AlaRS mutants in cells, whole-cell lysates (500 μg) were treated overnight with 2 μg of anti-Flag antibody in RIPA buffer. Next, Protein A/G agarose beads (#sc-2003, Santa Cruz Biotechnology, Santa Cruz, CA, USA) were applied to the lysates and the samples were further treated for 8–12 h with rotation. Samples were washed three times with RIPA buffer. Subsequently, the immunoprecipitations were resuspended into 2 × SDS-loading buffer. The samples were then boiled for 10 min and detected using Western blot. The experiment was repeated three times.

Mean density band (R329H), relative quantification of AlaRS mutant immunoprecipitated: 0.50
SMILES: Cc1coc2c1C(=O)C(=O)c1c-2ccc2c(C)cccc12 [Tanshinone I]

Source: publication PMC11509018, “Evaluation of the Role of Tanshinone I in an In Vitro System of Charcot-Marie-Tooth Disease Type 2N” (International Journal of Molecular Sciences, 2024)
